Measurements as given in PubChem BioAssay AID278 (DTP/NCI, 2004).
Values joined by “and” are separate entries in the source; they are usually repeats but may differ in a detail not shown here. Equal entries are not always repeated. Results filed as inconclusive are left out.

System: nude mice, A549 intrarenal xenograft, tumor weight change
Assay: NCI In Vivo Anticancer Drug Screen. Data for tumor model A549 Human Adenocarcinoma of Lung with characteristics of Type II Alveolar Epithelial cells (intrarenal inoculation) in NU/NU BALB/C (nude) mice
Details: endpoint: mean tumor weight change, higher = larger tumour
How it was run: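 Activity is expressed as T/C: the treated-group value over the vehicle-treated control value. The measure was survival or tumor size in mice carrying transplantable tumors.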

[1] = dose: 50.0 mg/kg/injection, schedule: Q04DX003 (ip), vehicle: saline with Tween-80
[2] = dose: 100.0 mg/kg/injection, schedule: Q04DX003 (ip), vehicle: saline with Tween-80
[3] = dose: 37.5 mg/kg/injection, schedule: Q04DX003 (ip), vehicle: water
[4] = dose: 50.0 mg/kg/injection, schedule: Q04DX003 (ip), vehicle: Klucel (hydroxypropylcellulose) (HPC)
[5] = dose: 200.0 mg/kg/injection, schedule: Q04DX003 (ip), vehicle: Klucel (hydroxypropylcellulose) (HPC)
[6] = dose: 150.0 mg/kg/injection, schedule: Q04DX003 (ip), vehicle: saline with Tween-80
[7] = dose: 300.0 mg/kg/injection, schedule: Q04DX003 (ip), vehicle: saline with Tween-80
[8] = dose: 150.0 mg/kg/injection, schedule: Q04DX003 (ip), vehicle: Klucel (hydroxypropylcellulose) (HPC)
[9] = dose: 300.0 mg/kg/injection, schedule: Q04DX003 (ip), vehicle: Klucel (hydroxypropylcellulose) (HPC)
[10] = dose: 75.0 mg/kg/injection, schedule: Q04DX003 (ip), vehicle: saline with Tween-80
[11] = dose: 100.0 mg/kg/injection, schedule: Q04DX003 (ip), vehicle: Klucel (hydroxypropylcellulose) (HPC)
[12] = dose: 200.0 mg/kg/injection, schedule: Q04DX003 (ip), vehicle: saline with Tween-80
[13] = dose: 75.0 mg/kg/injection, schedule: Q04DX003 (ip), vehicle: Klucel (hydroxypropylcellulose) (HPC)
[14] = dose: 90.0 mg/kg/injection, schedule: Q04DX003 (ip), vehicle: saline with Tween-80

O=NNc1ccc(Cl)cn1
T/C (dose: 5.0 mg/kg/injection, schedule: Q04DX003 (ip), vehicle: water): 63 % of control
T/C (dose: 6.25 mg/kg/injection, schedule: Q04DX003 (ip), vehicle: water): 113 % of control
T/C (dose: 10.0 mg/kg/injection, schedule: Q04DX003 (ip), vehicle: water): 68 % of control
T/C (dose: 12.5 mg/kg/injection, schedule: Q04DX003 (ip), vehicle: water): 62 % of control
T/C (dose: 20.0 mg/kg/injection, schedule: Q04DX003 (ip), vehicle: water): 100 % of control
T/C (dose: 25.0 mg/kg/injection, schedule: Q04DX003 (ip), vehicle: water): 61 % of control
T/C (dose: 40.0 mg/kg/injection, schedule: Q04DX003 (ip), vehicle: water): 57 % of control
T/C (dose: 50.0 mg/kg/injection, schedule: Q04DX003 (ip), vehicle: water): 26 % of control

CC(=O)C[n+]1ccc(C)cc1Sc1ccccc1C
T/C [1]: 112 % of control
T/C [2]: 44 % of control

c1ccc2[nH]c(CN(CCN(Cc3nc4ccccc4[nH]3)Cc3nc4ccccc4[nH]3)Cc3nc4ccccc4[nH]3)nc2c1
T/C (dose: 6.25 mg/kg/injection, schedule: Q04DX003 (ip), vehicle: DMSO): 124 % of control
T/C (dose: 12.5 mg/kg/injection, schedule: Q04DX003 (ip), vehicle: DMSO): 102 % of control
T/C (dose: 25.0 mg/kg/injection, schedule: Q04DX003 (ip), vehicle: DMSO): 157 % of control

COC(=O)NC1C(C)OC(OC2C/C=C(/C)C3C=CC4C(OC5CC(OC6CC(OC7CC(O)C(O)C(C)O7)C(OC7CC(O)C(OC)C(C)O7)C(C)O6)C(O)C(C)O5)C(C)CC(C)C4C3(C)/C(O)=C3\C(=O)OC4(CC(C)C(CO)=CC4/C=C\2C)C3=O)CC1(C)[N+](=O)[O-] (stereo not drawn)
T/C (dose: 9.38 mg/kg/injection, schedule: Q04DX003 (ip), vehicle: water): 69 % of control
T/C (dose: 18.75 mg/kg/injection, schedule: Q04DX003 (ip), vehicle: water): 58 % of control
T/C [3]: 76 % of control

O=C([O][Bi]([c]1ccccc1)[c]1ccccc1)c1ccccc1
T/C (dose: 25.0 mg/kg/injection, schedule: Q04DX003 (ip), vehicle: Klucel (hydroxypropylcellulose) (HPC)): 83 % of control
T/C [4]: 76 % of control
T/C [5]: 73 % of control

CCCCNP1(NCCCC)=NP(NCCCC)(NCCCC)=NP(NCCCC)(NCCCC)=NP(NCCCC)(NCCCC)=N1
T/C [6]: 111 % of control
T/C [7]: 44 % of control

C=C(c1ccc(OC)c(OC)c1)c1nccc2cc(OC)c(OC)cc12
T/C [8]: 50 % of control
T/C [9]: 62 % of control

COc1cccc(Sc2ccc([N+](=O)[O-])c3no[n+]([O-])c23)c1
T/C [10]: 49 % of control
T/C [6]: 86 % of control

N#CC(C#N)=NNc1ccc2cn[nH]c2c1
T/C [4]: -6 % of control
T/C [11]: 117 % of control and 124 % of control

Nc1ccc2ccc(NS(=O)(=O)N3CCCCC3)cc2c1
T/C [6]: 94 % of control
T/C [7]: 60 % of control
T/C (dose: 600.0 mg/kg/injection, schedule: Q04DX003 (ip), vehicle: saline with Tween-80): 32 % of control

CN(C)c1ccc2c(Nc3ccc(NS(C)(=O)=O)cc3)c3ccc(N(C)C)cc3nc2c1
T/C [4]: 116 % of control
T/C [11]: 39 % of control
T/C [5]: 41 % of control

CN=C(N)N/N=C(\C)c1ccc2sc3ccc(/C(C)=N/NC(N)=NC)cc3c2c1
T/C [10]: 118 % of control
T/C [6]: 95 % of control
T/C [7]: 83 % of control

CCOC(=O)C1=C(C)O/C(=C/c2cccc(Cl)c2)C1=O
T/C (dose: 25.0 mg/kg/injection, schedule: Q04DX003 (ip), vehicle: saline with Tween-80): 48 % of control
T/C [1]: 51 % of control
T/C [2]: 77 % of control
T/C [12]: 18 % of control

C=CCSC(C)=O
T/C (dose: 62.5 mg/kg/injection, schedule: Q04DX003 (ip), vehicle: suspension in saline): 83 % of control
T/C (dose: 125.0 mg/kg/injection, schedule: Q04DX003 (ip), vehicle: suspension in saline): 53 % of control
T/C (dose: 250.0 mg/kg/injection, schedule: Q04DX003 (ip), vehicle: suspension in saline): 90 % of control
T/C (dose: 500.0 mg/kg/injection, schedule: Q04DX003 (ip), vehicle: suspension in saline): 71 % of control

CN(C)c1ccc2c(SCC(=O)OCC(=O)[C@@]3(O)CC[C@H]4[C@@H]5CCC6=CC(=O)C=C[C@]6(C)[C@H]5C(=O)C[C@@]43C)c3ccc(N(C)C)cc3nc2c1
T/C [13]: 52 % of control
T/C [8]: 62 % of control
T/C [9]: 96 % of control

CN(C)N=Nc1ccc(C(N)=O)cc1
T/C (dose: 22.5 mg/kg/injection, schedule: Q04DX003 (ip), vehicle: saline with Tween-80): 65 % of control
T/C (dose: 45.0 mg/kg/injection, schedule: Q04DX003 (ip), vehicle: saline with Tween-80): 55 % of control
T/C [14]: 54 % of control
T/C (dose: 180.0 mg/kg/injection, schedule: Q04DX003 (ip), vehicle: saline with Tween-80): 17 % of control
T/C (dose: 216.0 mg/kg/injection, schedule: Q04DX003 (ip), vehicle: saline with Tween-80): 39 % of control
T/C (dose: 360.0 mg/kg/injection, schedule: Q04DX003 (ip), vehicle: saline with Tween-80): 2 % of control and 15 % of control

CC1C(c2ccccc2)OC(N2CCOCC2)C(C)(C)CN1C (stereo not drawn)
T/C [6]: 112 % of control
T/C [7]: 72 % of control

Cc1ccoc1
T/C [1]: 78 % of control
T/C [2]: 89 % of control
T/C [12]: 75 % of control

O=C(O)[C@H](Cc1ccccc1)N1C(=O)c2ccccc2C1=O
T/C (dose: 150.0 mg/kg/injection, schedule: Q04DX003 (ip), vehicle: DMSO): 94 % of control
T/C (dose: 300.0 mg/kg/injection, schedule: Q04DX003 (ip), vehicle: DMSO): 77 % of control
T/C (dose: 600.0 mg/kg/injection, schedule: Q04DX003 (ip), vehicle: DMSO): 47 % of control

CN(C)CCNc1ccc(CO)c2sc3ccc(O)cc3c(=O)c12
T/C (dose: 54.0 mg/kg/injection, schedule: Q04DX003 (ip), vehicle: saline with Tween-80): 5 % of control
T/C [14]: 3 % of control
T/C [6]: 2 % of control and 12 % of control
T/C (dose: 250.0 mg/kg/injection, schedule: Q04DX003 (ip), vehicle: saline with Tween-80): -36 % of control

CO[C@H](/C(C)=C/C=C/C(C)=C/c1coc(C)n1)[C@H](C)[C@H]1C[C@@H](O)[C@@]2(C)O[C@H]2/C=C/[C@@H](C)[C@@H]2C[C@@H](CC(=O)O2)C[C@H]2O[C@@H]2C(=O)O1
T/C (dose: 0.07 mg/kg/injection, schedule: Q04DX003 (ip), vehicle: other): 71 % of control
T/C (dose: 0.12 mg/kg/injection, schedule: Q04DX003 (ip), vehicle: other): 54 % of control
T/C (dose: 0.13 mg/kg/injection, schedule: Q01DX009 (ip), vehicle: Klucel (hydroxypropylcellulose) (HPC)): 54 % of control
T/C (dose: 0.18 mg/kg/injection, schedule: Q04DX003 (ip), vehicle: Klucel (hydroxypropylcellulose) (HPC)): 57 % of control
T/C (dose: 0.2 mg/kg/injection, schedule: Q01DX009 (ip), vehicle: Klucel (hydroxypropylcellulose) (HPC)): 15 % of control
T/C (dose: 0.2 mg/kg/injection, schedule: Q04DX003 (ip), vehicle: other): 86 % of control
T/C (dose: 0.3 mg/kg/injection, schedule: Q01DX009 (ip), vehicle: Klucel (hydroxypropylcellulose) (HPC)): 38 % of control
T/C (dose: 0.3 mg/kg/injection, schedule: Q04DX003 (ip), vehicle: Klucel (hydroxypropylcellulose) (HPC)): 41 % of control
T/C (dose: 0.33 mg/kg/injection, schedule: Q04DX003 (ip), vehicle: other): 21 % of control
T/C (dose: 0.5 mg/kg/injection, schedule: Q04DX003 (ip), vehicle: Klucel (hydroxypropylcellulose) (HPC)): 26 % of control
T/C (dose: 0.83 mg/kg/injection, schedule: Q04DX003 (ip), vehicle: Klucel (hydroxypropylcellulose) (HPC)): 21 % of control

C/C=C/CC(C)C(O)C1C(=O)NC(CC)C(=O)N(C)CC(=O)N(C)C(CC(C)C)C(=O)NC(C(C)C)C(=O)N(C)C(CC(C)C)C(=O)NC(C)C(=O)NC(C)C(=O)N(C)C(CC(C)C)C(=O)N(C)C(CC(C)C)C(=O)N(C)C(C(C)C)C(=O)N1C (stereo not drawn)
T/C [13]: 158 % of control
T/C [8]: 65 % of control

CO[C@@H]1C2=CC=CC=C[C@H]2n2c(=O)n(C)c(=O)n21
T/C [3]: 223 % of control
T/C (dose: 75.0 mg/kg/injection, schedule: Q04DX003 (ip), vehicle: other): 32 % of control
T/C (dose: 75.0 mg/kg/injection, schedule: Q04DX003 (ip), vehicle: water): 195 % of control
T/C (dose: 150.0 mg/kg/injection, schedule: Q04DX003 (ip), vehicle: other): 74 % of control
T/C (dose: 150.0 mg/kg/injection, schedule: Q04DX003 (ip), vehicle: water): 158 % of control
